Reference: US20090104148A1, “Treatment and prevention of joint disease” (priority 2007, published 2009)
Entries after “also recorded” stand apart in the source; their conditions may differ.

Key:
Assay type in all cases: in vivo, Male Lewis rats
[1] = test system: ACL-transection (ACLT) model; assay: SF lavage lubricin levels by sandwich ELISA, ACL-transection model, Example 3; details: etanercept-treated ACLT joints vs non-treated ACLT joints, 0.5 mg/kg subcutaneously days 1, 3, 5, 7, 9, 11, 13, 2 weeks following ACLT
Method: (§1) The following reagents and methods were used to evaluate inhibition of the effects of TNF-α by etanercept and the preservation of joint lubrication and decrease cartilage damage following an ACL injury. ACL-transection (ACLT) model and entanercept administration: Male Lewis rats 7-8 weeks were assigned to either an ACL-transection group (n=5), etanercept-treated ACL-transection group (n=5) or a sham-group (n=4). Etanercept was given subcutaneously at 0.5 mg/kg on days 1, 3, 5, 7, 9, 11, and 13 following ACLT. At 14 days following surgery, ACLT, contralateral (CL) and sham (S) joints were harvested and lavaged. Lavaging was performed by injecting 100 μl in the joint capsule, flexing and extending the joint for ten times and aspirating 50 μl of fluid. SF Lubricin levels: Lubricin levels were determined using sandwich ELISA employing a lubricin-specific monoclonal antibody, and peanut agglutinin (PNA). Ex-vivo joint μ: Articular joints' μ values were determined using modified Stanton pendulum (Elsaid K A et al, Arthritis Rheum 2007; 56:108-116). sGAG levels in SF lavages: Total sGAG levels were determined by Alcian blue binding assay.

[2] = test system: ACL-transection (ACLT) model; assay: Ex-vivo joint coefficient of friction (μ), modified Stanton pendulum, ACL-transection model, Example 3; details: etanercept-treated ACLT joints vs non-treated ACLT joints; 0.5 mg/kg subcutaneously days 1-13; 2 weeks following ACLT
Method: as §1

[3] = test system: ACL-transection (ACLT) model; assay: sGAG levels in SF lavages by Alcian blue binding assay, ACL-transection model, Example 3; details: etanercept-treated vs non-treated joints; 0.5 mg/kg subcutaneously days 1-13; 2 weeks following ACLT
Method: as §1

ACL-transection model [4] = assay: SF lavage lubricin levels by sandwich ELISA, early vs late etanercept, ACL-transection model, Example 4; details: 28 days following transection
Method: (§2) Etanercept was administered to animals, and condroprotection was evaluated using an ACL-transection model. Male Lewis rats 7-8 weeks were assigned to either an ACL-transection group (n=5), 2 etanercept-treated ACLT groups (n=12, 6 in each group) or a sham surgery group (n=4). Etanercept was given subcutaneously at 0.5 mg/kg on days 8, and 15 following transection (Treatment A) or on days 15 and 22 (Treatment B). At 28 days following transection, ACL-transected (ACLT), contralateral (CL) and sham joints were harvested and lavaged. Lavaging was performed by injecting 50 μl of normal saline in the joint capsule, flexing and extending the joint for ten times and then aspirating 30 μl of fluid.
(§3) SF lubricin levels were determined using a sandwich ELISA employing a lubricin-specific monoclonal antibody such as 9G3, and peanut agglutinin. Surface-associated lubricin coverage was calculated from 9G3-stained histological specimens. Quantitiation of lubricin staining intensity was calculated using Image Pro-Plus software (Media Cybernetics, MD, USA) with pre-determined threshold parameters and expressed as percentage of lubricin surface coverage. An average of lubricin surface coverage of the medial and lateral regions of femur and tibial cartilage surfaces was calculated.

ACL-transection model [5] = assay: Surface-associated lubricin coverage from 9G3-stained histological specimens, ACL-transection model, Example 4
Method: as §2, §3

ACL-transection model [6] = assay: Ex-vivo joint coefficient of friction (μ), modified Stanton pendulum, ACL-transection model, Example 4; details: 28 days following transection

## etanercept
[1]
  Lubricin SF lavage levels: significantly (p<0.001) higher
[1]; listed as ENBREL™
  Lubricin SF lavage levels: upregulation of lubricin
[2]
  ex-vivo joint coefficient of friction (μ): significantly (p=0.021) lower
[3]
  sGAG SF lavage levels: significantly (p<0.001) lower
ACL-transection model [4]; Treatment A (0.5 mg/kg s.c. days 8 and 15), ACLT joints, vs ACLT control and treatment B
  SF lavage lubricin levels: significantly (p<0.01) higher
ACL-transection model [4]; contralateral (CL) joints, treatments A and B vs other groups
  SF lavage lubricin levels in CL joints: comparable across the different groups
ACL-transection model [5]; contralateral (CL) joints, treatments A and B vs other groups, 28 days following transection
  Lubricin coverage in the CL joints: comparable across the different groups
ACL-transection model [5]; inflamed rat joint following an ACL injury, ENBREL alone
  lubricin layer in the superficial zone: reestablishes some of the lubricin layer in the superficial zone
ACL-transection model [5]; untreated ACLT joints compared to treatments A and B (0.5 mg/kg s.c.), 28 days following transection
  Lubricin coverage of articular surfaces (percentage surface coverage): significantly (p<0.01) lower than in treatment-A, treatment-B; also recorded: significantly (p<0.01) lower in the ACLT joints compared to treatments A, B
ACL-transection model [6]; Treatment A (0.5 mg/kg s.c. days 8 and 15), ACLT joints
  mean coefficient of friction (μ): 6.5*10^−4
ACL-transection model [6]; Treatment A (0.5 mg/kg s.c. days 8 and 15), CL joints
  mean coefficient of friction (μ): 4.7*10^−4
ACL-transection model [6]; Treatment B (0.5 mg/kg s.c. days 15 and 22), ACLT joints
  mean coefficient of friction (μ): 6.6*10^−4
ACL-transection model [6]; Treatment B (0.5 mg/kg s.c. days 15 and 22), CL joints
  mean coefficient of friction (μ): 4.9*10^−4
ACL-transection model [6]; treatments A and B
  joints' μ values, treatments A and B vs untreated ACLT and sham joints: lower than the μ values of ACLT joints
